Data on two compounds can be found in patent US20230355632A1, “DEUTERATED PARAXANTHINE AND USES THEREOF” (Lennham Pharmaceuticals, Inc., priority 2020, published 2023).

A short description of series [1]: Pharmacokinetic (PK) study in Sprague-Dawley rats, plasma, oral (gavage) dose. The series is classed as in vivo. As to conditions: rat; for AUC(0-t) / Cmax / Tmax: plasma, single oral (gavage) dose, fasted male Sprague Dawley rats, target dose 30 mg/kg (paraxanthine-d6 31 mg/kg, adjusted for MW). Here is the method: Two groups of fasted male Sprague-Dawley rats (12 animals per group) may be administered an oral single dose of paraxanthine in deionized water (Group 1) or paraxanthine-d6 (a compound of Formula (Ia)), in deionized water (Group 2) at a target dose level of […]. Serial blood samples may be collected from three animals per group per timepoint prior to dosing and at 0.25, 0.5, 1, 2, 3 4, 6, 8, 10, 12, and 14-hours post dose. No more than three blood samples may be collected from individual animals with the last sample being a terminal blood draw. Terminal brain samples may be collected from three animals per group at 1, 4, 8, and 14-hours post dose. Blood samples may be collected into tubes containing sodium heparin, and then processed for plasma and stored frozen until bioanalysis. Brain samples may be collected following the terminal blood collection, rinsed with saline, and stored frozen until bioanalysis. Plasma and brain samples may be analyzed for paraxanthine and paraxanthine-d6 (a compound of Formula (Ia)) concentration using a liquid chromatography-tandem mass spectrometry (LC-MS/MS) method. Non-compartmental pharmacokinetic parameter estimates may be calculated from the mean plasma concentration-time data. A pharmacokinetic (PK) study was conducted in Sprague-Dawley rats. Mean pharmacokinetic parameter estimates in plasma for paraxanthine and paraxanthine-d6 (a compound of Formula (Ia)) following an oral dose of paraxanthine or D6-paraxanthine to male Sprague-Dawley rats are reported in Table 1. […] The dose level for paraxanthine-d6 (a compound of Formula (Ia)) was adjusted to account for molecular weight differences between paraxanthine (MW=180.17) and paraxanthine-d6 (MW=186.2).

Series [2] in a line: Human pharmacokinetic (PK) crossover study of caffeine versus d9-caffeine; plasma metabolites paraxanthine / paraxanthine-d6. The format is in vivo. As to conditions: for elimination ½ life: estimated, over both dose levels (0.26 and 1.29 mmol caffeine or d9-caffeine), as metabolite in human plasma; for AUC(0-t) / Cmax / Tmax / half-life: human, plasma, plasma metabolite, arithmetic mean, healthy adults. How it is done:
A double-blind, randomized, two-part, two-period crossover study was conducted to evaluate the pharmacokinetics of caffeine versus d9-caffeine (depicted as compound 14 within U.S. Pat. No. 10,582,716, the disclosure of which is incorporated herein by reference) and their respective metabolites at two dose levels in 20 healthy adult volunteers. A single dose of 50 mg (0.26 mmol) or 250 mg (1.29 mmol) of caffeine, or a molar-equivalent dose of d9-caffeine, were administered in aqueous solution with blood samples collected for up to 48 hours post-dose. Plasma concentrations of parent and metabolites were analyzed using validated LC-MS/MS methods. The pharmacokinetic parameters of the primary caffeine metabolite, paraxanthine, and its respective counterpart, paraxanthine-d6, were analyzed and are reported in Table 2. The elimination ½ life of paraxanthine was estimated at 5-8 hours, consistent with published literature. The elimination ½ life of paraxathine-d6 was estimated at >18-22 hours, a […] difference. […] The data from this study supports the administration of paraxanthine-d6 once daily to humans to prevent or treat various diseases and conditions.

[3] abbreviates: single dose 0.26 mmol caffeine (paraxanthine) or 0.26 mmol d9-caffeine (paraxanthine-d6).
[4] abbreviates: single dose 1.29 mmol caffeine (paraxanthine) or 1.29 mmol d9-caffeine (paraxanthine-d6).

SMILES strings stand for the structures.

By AUC(0-t) is commonly meant the area under the concentration-time curve up to a stated or last time point. For orientation: Cmax means the maximum level reached in the sampled fluid or tissue. The term Tmax denotes the time from dosing to the highest level. In general, half-life refers to the time needed for the level to fall by half in the phase considered. As for `Cn1c(=O)[nH]c2ncn(C)c2c1=O` [Paraxanthine, paraxanthine], in series [1], the AUC(0-t) was found to be 170 µg·h/mL, the concentration peaked (Cmax) at 38900 ng/mL and the Tmax was 0.5 h. In addition, the “elimination ½ life” value in series [2] is 5 to 8 h. Further, in series [2] (setting [3]), the area under the curve AUC(0-t) was determined as 31.5 µM·h, the Cmax was 1620 nM, the Tmax was 8.22 h and the half-life is 7.58 h. In series [2] (setting [4]), the AUC(0-t) stood at 122 µM·h, the Cmax turned out to be 7170 nM, the Tmax stood at 7.5 h and the half-life was 5.74 h.
For the compound `[2H]C([2H])([2H])n1c(=O)[nH]c2ncn(C([2H])([2H])[2H])c2c1=O` [Paraxanthine-d6, paraxanthine-d6], the “elimination ½ life of paraxanthine-d6 compared with paraxanthine” value in series [1] (in vivo) is “no difference”. Moreover, in series [1], the AUC(0-t) turned out to be 196 µg·h/mL, the peak level (Cmax) was 42400 ng/mL and the Tmax was determined as 0.5 h. In addition, the “elimination ½ life” value in series [2] is 18 to 22 h. For the same compound, in series [2] (setting [3]), the AUC(0-t) worked out at 110 µM·h, the Cmax worked out at 2900 nM, the Tmax was 21.1 h and the half-life is greater than 18 h. Further, in series [2] (setting [4]), the AUC(0-t) was 110 µM·h, the highest concentration (Cmax) came to 2900 nM, the Tmax was found to be 21.1 h and the half-life is greater than 22 h.
